Test results from PubChem BioAssay AID330 (DTP/NCI, 2004).
Values joined by “and” are separate entries in the source; they are usually repeats but may differ in a detail not shown here. Equal entries are not always repeated. Inconclusive results and toxic doses are left out. Rule for the calls: active = survival T/C of 150% or more; inactive = T/C below 125% in these data.

System: P388 leukemia ip, CD2F1 mice, survival T/C
Test: NCI In Vivo Anticancer Drug Screen. Data for tumor model P388 Leukemia (intraperitoneal) in CD2F1 (CDF1) mice
Conditions: endpoint: median survival time, higher = longer survival
Procedure, shortened: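 Mice carrying the transplanted tumor received test compound or vehicle. Survival was recorded in each group, and the value is the treated-group measurement divided by that of the vehicle-treated control group.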

[1] = dose: 60.0 mg/kg/injection, schedule: Q01DX005 (ip), vehicle: Klucel (hydroxypropylcellulose) (HPC)
[2] = dose: 12.5 mg/kg/injection, schedule: Q01DX009 (ip), vehicle: Klucel (hydroxypropylcellulose) (HPC)
[3] = dose: 25.0 mg/kg/injection, schedule: Q01DX009 (ip), vehicle: Klucel (hydroxypropylcellulose) (HPC)
[4] = dose: 50.0 mg/kg/injection, schedule: Q01DX009 (ip), vehicle: Klucel (hydroxypropylcellulose) (HPC)
[5] = dose: 100.0 mg/kg/injection, schedule: Q01DX009 (ip), vehicle: Klucel (hydroxypropylcellulose) (HPC)
[6] = dose: 200.0 mg/kg/injection, schedule: Q01DX009 (ip), vehicle: Klucel (hydroxypropylcellulose) (HPC)
[7] = dose: 12.5 mg/kg/injection, schedule: Q01DX009 (ip), vehicle: saline
[8] = dose: 25.0 mg/kg/injection, schedule: Q01DX009 (ip), vehicle: saline
[9] = dose: 50.0 mg/kg/injection, schedule: Q01DX009 (ip), vehicle: saline
[10] = dose: 100.0 mg/kg/injection, schedule: Q01DX009 (ip), vehicle: saline

Measured: T/C

CSc1nc(NCc2ccc(Cl)cc2)c2[nH]c(C)nc2n1
inactive: dose: 0.2 mg/kg/injection, schedule: Q01DX009 (ip), vehicle: saline with Tween-80 98 % of control and 101 % of control | dose: 0.39 mg/kg/injection, schedule: Q01DX009 (ip), vehicle: saline with Tween-80 101 % of control and 94 % of control | dose: 0.78 mg/kg/injection, schedule: Q01DX009 (ip), vehicle: saline with Tween-80 106 % of control and 93 % of control | dose: 1.56 mg/kg/injection, schedule: Q01DX009 (ip), vehicle: saline with Tween-80 99 % of control and 95 % of control

CN(C)/C=C/C=C1\CCCC1=O
inactive: dose: 50.0 mg/kg/injection, schedule: Q04DX002 (ip), vehicle: saline with Tween-80 103 % of control | dose: 100.0 mg/kg/injection, schedule: Q04DX002 (ip), vehicle: saline with Tween-80 100 % of control | dose: 200.0 mg/kg/injection, schedule: Q04DX002 (ip), vehicle: saline with Tween-80 108 % of control

CC(C)COCSCC(NC(=O)CNC(=O)C(Cc1ccccc1)NC(=O)CNC(=O)C(CSC(c1ccccc1)(c1ccccc1)c1ccccc1)NC(c1ccccc1)(c1ccccc1)c1ccccc1)C(=O)O (stereo not given)
inactive: dose: 15.0 mg/kg/injection, schedule: Q01DX005 (ip), vehicle: Klucel (hydroxypropylcellulose) (HPC) 97 % of control | dose: 30.0 mg/kg/injection, schedule: Q01DX005 (ip), vehicle: Klucel (hydroxypropylcellulose) (HPC) 96 % of control | [1] 88 % of control and 94 % of control

COc1ccc(CC2c3cc4c(cc3CCN2C)OCO4)c(C=O)c1OC (stereo not given)
inactive: dose: 12.5 mg/kg/injection, schedule: Q01DX001 (ip), vehicle: saline + alcohol 93 % of control | dose: 25.0 mg/kg/injection, schedule: Q01DX001 (ip), vehicle: saline + alcohol 97 % of control | dose: 50.0 mg/kg/injection, schedule: Q01DX001 (ip), vehicle: saline + alcohol 99 % of control

CCCCCCC/C=C/C(=O)OC1C(OC2C(OC(CCCCCCC)CC(=O)OC(CCCCCCC)CC(=O)O)OC(C)C(O)C2O)OC(C)C(O)C1O (stereo not given)
inactive: [2] 102 % of control and 89 % of control | [3] 98 % of control and 120 % of control and 87 % of control | [4] 120 % of control and 95 % of control (2×) | [5] 116 % of control

CCc1c(C)nc2cc(-c3cc(C)n4c(=O)c(CC)c(C)nc4c3)cc(C)n2c1=O
inactive: [1] 90 % of control | dose: 120.0 mg/kg/injection, schedule: Q01DX005 (ip), vehicle: Klucel (hydroxypropylcellulose) (HPC) 96 % of control | dose: 240.0 mg/kg/injection, schedule: Q01DX005 (ip), vehicle: Klucel (hydroxypropylcellulose) (HPC) 100 % of control

Oc1ccc(N=Nc2ccc3c4c(cccc24)-c2ccccc2-3)c2cccnc12
inactive: [4] 99 % of control | [5] 102 % of control | [6] 114 % of control

CN=C/C(C(C)=O)=C(\C)O
inactive: [7] 103 % of control | [8] 105 % of control | [9] 101 % of control and 106 % of control | [10] 112 % of control and 91 % of control

N#Cc1ccc(C(=O)C=C(C(F)(F)F)C(F)(F)F)cc1
inactive: dose: 3.13 mg/kg/injection, schedule: Q01DX009 (ip), vehicle: other 115 % of control | dose: 5.56 mg/kg/injection, schedule: Q01DX009 (ip), vehicle: other 120 % of control

CCOC(=O)C(CC1=CS(=O)(=O)c2ccc(Cl)cc21)(NC(C)=O)C(=O)OCC
inactive: [4] 96 % of control | [5] 91 % of control | [6] 87 % of control

CC1=CC(=Nc2ccc(N(CCCl)CCCl)cc2)C=C(C)C1=O
active: [2] 186 % of control | dose: 12.5 mg/kg/injection, schedule: Q01DX009 (ip), vehicle: other 153 % of control | [3] 173 % of control and 186 % of control | dose: 25.0 mg/kg/injection, schedule: Q01DX009 (ip), vehicle: other 235 % of control | [4] 170 % of control and 186 % of control | [9] 157 % of control | [10] 166 % of control
inactive: dose: 3.12 mg/kg/injection, schedule: Q01DX009 (ip), vehicle: Klucel (hydroxypropylcellulose) (HPC) 105 % of control | [7] 104 % of control and 118 % of control | [8] 114 % of control | dose: 50.0 mg/kg/injection, schedule: Q01DX009 (ip), vehicle: other 91 % of control

O=C(CCl)NC(Cc1ccsc1)C(=O)O (stereo not given)
inactive: [9] 93 % of control | [10] 102 % of control
